Assay results from BindingDB's records for doi:10.1021/acs.jmedchem.8b01467 (Janssen Research & Development, 2018).

The compounds below were run against Cannabinoid receptor 2 (Homo sapiens, UniProt P34972) (assay: Inverse agonist activity at human CB2 receptor expressed in HEK293 cells assessed as […] after 30 mins by HTRF assay).
Sequence of Cannabinoid receptor 2 (P34972 whole entry): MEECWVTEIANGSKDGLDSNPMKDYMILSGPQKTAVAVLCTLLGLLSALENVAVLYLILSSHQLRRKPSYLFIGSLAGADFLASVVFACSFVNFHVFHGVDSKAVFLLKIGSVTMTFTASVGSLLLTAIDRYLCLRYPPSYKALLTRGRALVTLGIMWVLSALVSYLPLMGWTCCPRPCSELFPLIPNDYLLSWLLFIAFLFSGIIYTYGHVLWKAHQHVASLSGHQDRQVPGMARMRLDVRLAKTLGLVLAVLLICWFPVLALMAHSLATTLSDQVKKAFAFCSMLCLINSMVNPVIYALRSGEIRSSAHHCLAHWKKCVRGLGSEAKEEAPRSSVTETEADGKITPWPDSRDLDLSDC

EC50, > 10 µM:
Cn1c(=O)cc(NC2CCN(S(=O)(=O)C(F)(F)F)CC2)c2cc(C(c3ccc(Cl)cc3)c3ccc(Cl)cc3)ccc21 [US9266835, 49]
O=c1cc(NC2CCN(S(=O)(=O)c3ccccc3)CC2)c2cc(C(c3ccc(Cl)cc3)c3ccc(Cl)cc3)ccc2[nH]1 [US9266835, 80]
O=C(O)c1ccc(C(=O)N2CCC(Nc3cc(=O)[nH]c4ccc(C(c5ccc(Cl)cc5)c5ccc(Cl)cc5)cc34)CC2)cc1 [US9266835, 116]
O=C(O)c1ccc(CN2CCC(Nc3cc(=O)[nH]c4ccc(C(c5ccc(Cl)cc5)c5ccc(Cl)cc5)cc34)CC2)cc1 [US9266835, 127]
O=C(O)c1cccc(CN2CCC(Nc3cc(=O)[nH]c4ccc(C(c5ccc(Cl)cc5)c5ccc(Cl)cc5)cc34)CC2)c1 [US9266835, 129]
COCCOc1cc(NC2CCN(S(=O)(=O)C(F)(F)F)CC2)c2cc(C(c3ccc(Cl)cc3)c3ccc(Cl)cc3)ccc2n1 [US9266835, 530]
O=S(=O)(N1CCC(Nc2ccnc3c(O)cc(C(c4ccc(Cl)cc4)c4ccc(Cl)cc4)cc23)CC1)C(F)(F)F [US9266835, 541]
NCCCCOc1cc(C(c2ccc(Cl)cc2)c2ccc(Cl)cc2)cc2c(NC3CCN(S(=O)(=O)C(F)(F)F)CC3)ccnc12 [US9266835, 542]
